# From patent US6239171A, “Tocotrienols and tocotrienol-like compounds and methods for their use” (Lipogenics, Inc., priority 1998, dated 2001)
# Columns and labels:
# [1] = test system: hypercholesterolemic swine; assay: Serum cholesterol, apolipoproteins, triglycerides, glucose, insulin and glucagon in hypercholesterolemic swine; format: in vivo
# Experimental: All assays conducted on chicken or swine serum were done following the protocols described in A. A. Qureshi et al., "Lowering Of Serum Cholesterol In Hypercholesterolemic Humans By Tocotrienols" (Palmvitee), Am. […] Plasma insulin, glucagon and TNF levels were measured using radioinnumoassay kits from Ventrex Laboratories, Inc. (Portland, Me.), ICN Biomedicals, Inc. (Costa Mesa, Calif.) and Genzyme Corp. (Cambridge, Mass.), respectively.
# We next measured the effects of various tocotrienols from rice bran on HMG-CoA reductase and cholesterol 7α-hydroxylase in hypercholesterolemic swine. Since pigs are very similar to humans in their cholesterol metabolism, they provide a useful model from which to study hypercholesterolemia and related diseases. […] As a result, the pigs develop complicated atherosclerotic plaques that closely resemble advanced atherosclerotic lesions found in humans.
# Each group of three 5-month old swine was administered either a control diet or a control diet supplemented with 50 ppm of TRF or 50 ppm of an individual tocotrienol. […] After a 12 hour fast, serum and plasma samples were taken a 0 hrs, 21 days and 42 days from the start of the feeding period. After taking serum and plasma samples from the pigs at the end of the 42 day period, all of the swine were fasted for a total of 40 hours, followed by a 48 hour refeeding period. One swine from each group was sacrificed at that time and the liver, intestine, lung, heart, loin muscle, adipose tissue and ham muscle were removed.
# The experimental conditions were the same, except that the two remaining swine in each group were transferred to the unsupplemented control diet following the 42 day feeding period. After an additional 70 days, serum and plasma samples were collected from these swine after a 12 hour fast for testing.
# [2] = test system: hypercholesterolemic swine; assay: Plasma thromboxane B2 and platelet factor 4 in hypercholesterolemic swine; format: in vivo; details: control diet + 50 ppm, 42 days
# Text: All assays conducted on chicken or swine serum were done following the protocols described in A. A. Qureshi et al., "Lowering Of Serum Cholesterol In Hypercholesterolemic Humans By Tocotrienols" (Palmvitee), Am. J. Clin. Nutr., 53, pp. 1021S-26S (1991). All enzymatic assays were done following the protocols described in A. A. Qureshi et al., "Effects of Cereals and Culture Filtrate of Trichoderma viride on Lipid Metabolism of Swine", Lipids, 17, pp. 924 (1982). Plasma insulin, glucagon and TNF levels were measured using radioinnumoassay kits from Ventrex Laboratories, Inc. (Portland, Me.), ICN Biomedicals, Inc. (Costa Mesa, Calif.) and Genzyme Corp. (Cambridge, Mass.), respectively.
# Each group of three 5-month old swine was administered either a control diet or a control diet supplemented with 50 ppm of TRF or 50 ppm of an individual tocotrienol. The samples were prepared as described in Example 11. After a 12 hour fast, serum and plasma samples were taken a 0 hrs, 21 days and 42 days from the start of the feeding period. After taking serum and plasma samples from the pigs at the end of the 42 day period, all of the swine were fasted for a total of 40 hours, followed by a 48 hour refeeding period. One swine from each group was sacrificed at that time and the liver, intestine, lung, heart, loin muscle, adipose tissue and ham muscle were removed.
# This example was conducted to measure the serum levels of apolipoprotein (a)1, apolipoprotein B, triglycerides, glucose, insulin and glucagon and the plasma levels of thromboxane B2 and platelet factor 4 in the swine described in Example 15.
# [3] = 70 days on control diet after 42 days at 50 ppm
structure (smiles),measurement,setting,value
"CC(C)=CCC/C(C)=C/CC/C(C)=C/CCC1(C)CCc2cc(O)c(C)c(C)c2O1 (stereo not shown) [γ-T3, γ-tocotrienol, reference compound]",HDL-CHOLESTEROL CONCENTRATION IN SERUM,[1]; [3],30.47 mg/100 ml
same,"HDL-CHOLESTEROL, Percentage of Control Activity",[1]; [3],106.66%
same,"HDL-CHOLESTEROL, percentage of baseline value",[1]; [3],139.39%
same,"HDL:LDL CHOLESTEROL, Percentage of Control Activity",[1]; [3],84.52%
same,LDL-CHOLESTEROL CONCENTRATION IN SERUM,[1]; [3],224.66 mg/100 ml
same,"LDL-CHOLESTEROL, Percentage of Control Activity",[1]; [3],88.61%
same,"LDL-CHOLESTEROL, percentage of baseline value",[1]; [3],125.95%
same,TOTAL CHOLESTEROL CONCENTRATION IN SERUM,[1]; [3],271.70 mg/100 ml
same,"TOTAL CHOLESTEROL, Percentage of Control Activity",[1]; [3],78.80%
same,"TOTAL CHOLESTEROL, percentage of baseline value",[1]; [3],129.66%
same,"Apo A1, percentage of control","[1]; control diet + 50 ppm, 6 weeks",102.06%
same,Apo A1 concentration in serum,"[1]; control diet + 50 ppm, 6 weeks",26.22 ± 1.11 mg/100 ml
same,Apo B concentration in serum,"[1]; control diet + 50 ppm, 6 weeks",114.29 ± 1.79 mg/100 ml
same,"Apo B, percentage of control","[1]; control diet + 50 ppm, 6 weeks",77.34%
same,Triglycerides concentration in serum,"[1]; control diet + 50 ppm, 6 weeks",61.78 mg/100 ml
same,"Triglycerides, percentage of control","[1]; control diet + 50 ppm, 6 weeks",80.69%
same,HDL-CHOLESTEROL CONCENTRATION IN SERUM,"[1]; control diet + 50 ppm, 21 days",25.27 mg/100 ml
same,"HDL-CHOLESTEROL, percentage of baseline value","[1]; control diet + 50 ppm, 21 days",115.59%
same,"HDL:LDL CHOLESTEROL, percentage of baseline value","[1]; control diet + 50 ppm, 21 days",89.83%
same,LDL-CHOLESTEROL CONCENTRATION IN SERUM,"[1]; control diet + 50 ppm, 21 days",185.12 mg/100 ml
same,"LDL-CHOLESTEROL, percentage of baseline value","[1]; control diet + 50 ppm, 21 days",103.78%
same,TOTAL CHOLESTEROL CONCENTRATION IN SERUM,"[1]; control diet + 50 ppm, 21 days",225.20 mg/100 ml
same,"TOTAL CHOLESTEROL, percentage of baseline value","[1]; control diet + 50 ppm, 21 days",107.39%
same,Glucagon,"[1]; control diet + 50 ppm, 42 days",285.41 pg/mL
same,"Glucagon, percentage of control","[1]; control diet + 50 ppm, 42 days",86.38%
same,Glucose,"[1]; control diet + 50 ppm, 42 days",74.40 mg/100 ml
same,"Glucose, percentage of control","[1]; control diet + 50 ppm, 42 days",77.51%
same,HDL-CHOLESTEROL CONCENTRATION IN SERUM,"[1]; control diet + 50 ppm, 42 days",28.55 mg/100 ml
same,"HDL-CHOLESTEROL, Percentage of Control Activity","[1]; control diet + 50 ppm, 42 days",111.06%
same,"HDL-CHOLESTEROL, percentage of baseline value","[1]; control diet + 50 ppm, 42 days",130.60%
same,"HDL:LDL CHOLESTEROL, Percentage of Control Activity","[1]; control diet + 50 ppm, 42 days",60.58%
same,"HDL:LDL CHOLESTEROL, percentage of baseline value","[1]; control diet + 50 ppm, 42 days",82.84%
same,Insulin,"[1]; control diet + 50 ppm, 42 days",21.2 µU/mL
same,"Insulin, percentage of control","[1]; control diet + 50 ppm, 42 days",103.46%
same,LDL-CHOLESTEROL CONCENTRATION IN SERUM,"[1]; control diet + 50 ppm, 42 days",193.80 mg/100 ml
same,"LDL-CHOLESTEROL, Percentage of Control Activity","[1]; control diet + 50 ppm, 42 days",66.22%
same,"LDL-CHOLESTEROL, percentage of baseline value","[1]; control diet + 50 ppm, 42 days",108.65%
same,TOTAL CHOLESTEROL CONCENTRATION IN SERUM,"[1]; control diet + 50 ppm, 42 days",233.93 mg/100 ml
same,"TOTAL CHOLESTEROL, Percentage of Control Activity","[1]; control diet + 50 ppm, 42 days",71.00%
same,"TOTAL CHOLESTEROL, percentage of baseline value","[1]; control diet + 50 ppm, 42 days",111.76%
same,"Platelet Factor 4, percentage of control",[2],85.28%
same,Thromboxane B2,[2],62.54 pg/100 ml
same,"Thromboxane B2, percentage of control",[2],92.25%
